pIC50: −log10 of the molar value.
Columns and labels:
IL-17A : IL-17RA binding = molecular target: T1, IL-17A : IL-17RA binding (Homo sapiens, UniProt Q16552, K93Q); test: IL-17A(FLAG-tagged):IL-17RA(His-tagged) binding disruption Eu-HTRF assay, Protocol 1; details: FLAG-IL-17A 2.5 nM at 2x final concentration; average if tested more than once
T1 construct: Name: IL-17A-Flag
Source text: An antibody directed against the FLAG tag of IL-17A (SEQ ID NO: 1) is labeled with the HTRF donor chromophore (Europium-cryptate). IL-17A is present as a dimer that is “locked into” this quaternary structure due to the formation of loop-spanning […] disulfide bridges. The construct of IL-17RA used in the assay excludes the […] portion of the receptor and is fused to a C-terminal 10×His tag (SEQ ID NO:2). An antibody directed against the His tag of the IL-17RA chimera is labeled with the HTRF acceptor chromophore (“D2”). The fluorescence-resonance energy transfer (FRET) depends on the vicinity of the donor chromophore to the acceptor, and interruption of the binding between the IL-17A and IL-17RA causes the reduction/loss of FRET. Therefore, this assay allows to evaluate the compound effect on the binding IL-17A and IL-17RA by monitoring the fluorescence intensity of donor vs acceptor. The assay was run using either Protocol 1 or Protocol 2 as described below.
Protocol 1. 40 nl of 2-fold serial diluted compound solution for total 22 dilution points is added into each well of a 1536-well, white, low-volume, non-binding plate (Greiner #782904), then 2 μl of FLAG tagged IL-17A at 2× final concentration (2.5 nM) in solution of PBS+0.01% Triton-X100 is added to each well. The assay plate is briefly centrifuged then incubated for 1 h at rt. A mixed solution is prepared containing 2×5 nM 10HIS×IL-17RA, 2×2.5 nM Eu-anti-FLAG (CISBIO), 2×5 nM D2-anti-HIS (CISBIO) in PBS+0.01% Triton-X100+200 mM Potassium Fluoride (Sigma 60238) and 2 μl of mix is added to each well of the assay plate. The plate is briefly centrifuged then incubated for 2 h at rt. The HTRF intensities at the wavelength of donor (620 nm) and acceptor (665 nm) are measured using BMG Pherastar. The ratio between intensities at two wavelengths is calculated and plotted against the compound concentration and the data is fitted to a one-site competition model to yield IC50 of the compound.

[1] = tested on: IL-17A-induced G-CSF production in human normal keratinocyte (NHK); test: NHK assay: IL-17A-induced G-CSF production in normal human keratinocytes; type: cell-based; details: 24 h, IL-17A 5 ng/mL, average if tested more than once
Description: IL-17A acts directly on keratinocytes through binding to dimeric receptor IL-17RA/RC and drives the production of a number of inflammatory mediators known to be elevated in psoriasis lesional tissue. IL-17A small molecule inhibitors that block the IL-17A to interact with IL-17R would inhibit the IL-17A signaling in its targeted cells such as keratinocytes. The compound functional activity is evaluated for its impact on IL-17A-induced G-CSF production in human normal keratinocyte (NHK).
Adult normal human keratinocytes are cultured in keratinocyte growth medium (Lonza) in a flask till reaching ˜90% confluence, then cells are transferred to a 384-well plate at density of 3000-4000 cell/well. Recombinant human IL-17A (Gibco PHC9174) is pre-incubated with titrated compound or DMSO for 1 h at rt then added to the cell culture plate. The final concentration of IL-17A is 5 ng/mL and DMSO is 0.2%, in the culture containing 5% FBS. Cells are cultured/treated for 24 h at 37° C. Supernatants are collected and G-CSF production is measured through HTRF technology using Human G-CSF Kit (CisBio). G-CSF concentration was extrapolated from the standard curve and IC50 is determined using GraphPad Prism. Cell viability is also evaluated using CellTiter-Glo kit (Promega) and effect of compound on cell viability is compared to DMSO control.

T1 sequence (Q16552 with tags, fused parts or gaps K93Q): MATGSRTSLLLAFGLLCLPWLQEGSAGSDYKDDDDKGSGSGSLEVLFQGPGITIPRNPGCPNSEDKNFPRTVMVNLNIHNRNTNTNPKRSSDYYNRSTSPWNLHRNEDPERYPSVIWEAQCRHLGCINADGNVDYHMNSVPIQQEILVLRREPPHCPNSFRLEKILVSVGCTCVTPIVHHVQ

Cn1nccc1C(=O)N[C@H](c1nc2cc(C(NC(=O)CCC(F)(F)F)C3CC3)ccc2[nH]1)C1CCC(F)(F)CC1 (single isomer, unassigned) [Example 54, N—((S)-(5-((S*)-Cyclopropyl(4,4,4-trifluorobutanamido)methyl)-1H-benzo[d]imidazol-2-yl)(4,4-difluorocyclohexyl)methyl)-1-methyl-1H-pyrazole-5-carboxamide] showed a pIC50 (IL-17A : IL-17RA binding) of under 7.00 and a pIC50 ([1]; Homo sapiens, Keratinocyte) of over 7.30.
Cn1nccc1C(=O)N[C@H](c1nc2cc(C(NC(=O)CCC(F)(F)F)C3CC3)ccc2[nH]1)C1CCC(F)(F)CC1 (single isomer, unassigned) [Example 55, N—((S)-(5-((R*)-Cyclopropyl(4,4,4-trifluorobutanamido)methyl)-1H-benzo[d]imidazol-2-yl)(4,4-difluorocyclohexyl)methyl)-1-methyl-1H-pyrazole-5-carboxamide] showed a pIC50 (IL-17A : IL-17RA binding) of under 7.00 and a pIC50 [1] of under 7.00.
Molecule CC(C)c1c(C(=O)NC(CC(C)(C)C(F)(F)F)c2nc3cc([C@@H](C)NC(=O)CCC(F)(F)F)ccc3[nH]2)no[n+]1[O-] (single isomer, unassigned) [Example 56, 3-Isopropyl-4-(((S*)-4,4,4-trifluoro-3,3-dimethyl-1-(5-((R)-1-(4,4,4-trifluorobutanamido)ethyl)-1H-benzo[d]imidazol-2-yl)butyl)carbamoyl)-1,2,5-oxadiazole 2-oxide] has a pIC50 (IL-17A : IL-17RA binding) of 7.00 to 7.30 and a pIC50 ([1]; Homo sapiens, Keratinocyte) of 7.00 to 7.30.
For CC(C)c1nonc1C(=O)NC(CC(C)(C)C(F)(F)F)c1nc2cc([C@@H](C)NC(=O)CCC(F)(F)F)ccc2[nH]1 (single isomer, unassigned) [Example 57, 4-Isopropyl-N—((S*)-4,4,4-trifluoro-3,3-dimethyl-1-(5-((R)-1-(4,4,4-trifluorobutanamido)ethyl)-1H-benzo[d]imidazol-2-yl)butyl)-1,2,5-oxadiazole-3-carboxamide], the pIC50 (IL-17A : IL-17RA binding) was over 7.30 and the pIC50 ([1]; Homo sapiens, Keratinocyte) was over 7.30.
In the case of CC(Cn1ncc(C(=O)N[C@H](c2nc3ccc([C@@H](C)NC(=O)CCC(F)(F)F)cc3[nH]2)C2CCC(F)(F)CC2)n1)C(F)(F)F (single isomer, unassigned) [Example 69, N—((S)-(4,4-Difluorocyclohexyl)(6-((R)-1-(4,4,4-trifluorobutanamido)ethyl)-1H-benzo[d]imidazol-2-yl)methyl)-2-((R*)-3,3,3-trifluoro-2-methylpropyl)-2H-1,2,3-triazole-4-carboxamide], the pIC50 (IL-17A : IL-17RA binding) was under 7.00 and the pIC50 ([1]; Homo sapiens, Keratinocyte) was under 7.00.
CC(Cn1ncc(C(=O)N[C@H](c2nc3ccc([C@@H](C)NC(=O)CCC(F)(F)F)cc3[nH]2)C2CCC(F)(F)CC2)n1)C(F)(F)F (single isomer, unassigned) [Example 70, N—((S)-(4,4-Difluorocyclohexyl)(6-((R)-1-(4,4,4-trifluorobutanamido)ethyl)-1H-benzo[d]imidazol-2-yl)methyl)-2-((S*)-3,3,3-trifluoro-2-methylpropyl)-2H-1,2,3-triazole-4-carboxamide] was tested, and the pIC50 (IL-17A : IL-17RA binding) was under 7.00 and the pIC50 [1] was under 7.00.
CC(Cn1nncc1C(=O)N[C@H](c1nc2ccc([C@@H](C)NC(=O)CCC(F)(F)F)cc2[nH]1)C1CCC(F)(F)CC1)C(F)(F)F (single isomer, unassigned) [Example 71, N—((S)-(4,4-Difluorocyclohexyl)(6-((R)-1-(4,4,4-trifluorobutanamido)ethyl)-1H-benzo[d]imidazol-2-yl)methyl)-1-((R*)-3,3,3-trifluoro-2-methylpropyl)-1H-1,2,3-triazole-5-carboxamide] was tested, and the pIC50 (IL-17A : IL-17RA binding) was under 7.00 and the pIC50 ([1]; Homo sapiens, Keratinocyte) was under 7.00.
CC(Cn1nncc1C(=O)N[C@H](c1nc2ccc([C@@H](C)NC(=O)CCC(F)(F)F)cc2[nH]1)C1CCC(F)(F)CC1)C(F)(F)F (single isomer, unassigned) [Example 72, N—((S)-(4,4-Difluorocyclohexyl)(6-((R)-1-(4,4,4-trifluorobutanamido)ethyl)-1H-benzo[d]imidazol-2-yl)methyl)-1-((S*)-3,3,3-trifluoro-2-methylpropyl)-1H-1,2,3-triazole-5-carboxamide] showed a pIC50 (IL-17A : IL-17RA binding) of under 7.00 and a pIC50 [1] of under 7.00.
For C[C@@H](NC(=O)CCC(F)(F)F)c1ccc2[nH]c([C@@H](NC(=O)CC3CC3(F)F)C3CCC(F)(F)CC3)nc2c1 (single isomer, unassigned) [Example 107, N—((R)-1-(2-((S)-(4,4-Difluorocyclohexyl)(2-((R*)-2,2-difluorocyclopropyl)acetamido)methyl)-1H-benzo[d]imidazol-5-yl)ethyl)-4,4,4-trifluorobutanamide], the pIC50 (IL-17A : IL-17RA binding) was under 7.00 and the pIC50 ([1]; Homo sapiens, Keratinocyte) was under 7.00.
With C[C@@H](NC(=O)CCC(F)(F)F)c1ccc2[nH]c([C@@H](NC(=O)CC3CC3(F)F)C3CCC(F)(F)CC3)nc2c1 (single isomer, unassigned) [Example 108, N—((R)-1-(2-((S)-(4,4-Difluorocyclohexyl)(2-((S*)-2,2-difluorocyclopropyl)acetamido)methyl)-1H-benzo[d]imidazol-5-yl)ethyl)-4,4,4-trifluorobutanamide] the pIC50 (IL-17A : IL-17RA binding) was under 7.00 and the pIC50 [1] was under 7.00.
For C[C@@H](NC(=O)CCC(F)(F)F)c1ccc2[nH]c([C@@H](NC(=O)[C@@H]3CC[C@@H]3CF)C3CCC(F)(F)CC3)nc2c1 (single isomer, unassigned) [Example 113], the pIC50 (IL-17A : IL-17RA binding) was under 7.00 and the pIC50 ([1]; Homo sapiens, Keratinocyte) was under 7.00.
C[C@@H](NC(=O)CCC(F)(F)F)c1ccc2[nH]c([C@@H](NC(=O)[C@H]3CC[C@@H]3CF)C3CCC(F)(F)CC3)nc2c1 (single isomer, unassigned) [Example 114] was tested, and the pIC50 (IL-17A : IL-17RA binding) was under 7.00 and the pIC50 ([1]; Homo sapiens, Keratinocyte) was under 7.00.
CC(CC(=O)N[C@H](C)c1ccc2nc([C@@H](NC(=O)c3ccnn3CC(F)(F)F)C3CCC(F)(F)CC3)[nH]c2c1)C(F)(F)F (single isomer, unassigned) [Example 133, N—((S)-(4,4-Difluorocyclohexyl)(6-((R)-1-((R*)-4,4,4-trifluoro-3-methylbutanamido)ethyl)-1H-benzo[d]imidazol-2-yl)methyl)-1-(2,2,2-trifluoroethyl)-1H-pyrazole-5-carboxamide] showed a pIC50 (IL-17A : IL-17RA binding) of under 7.00 and a pIC50 ([1]; Homo sapiens, Keratinocyte) of under 7.00.
CC(CC(=O)N[C@H](C)c1ccc2nc([C@@H](NC(=O)c3ccnn3CCC(F)(F)F)C3CCC(F)(F)CC3)[nH]c2c1)C(F)(F)F (single isomer, unassigned) [Example 134, N—((S)-(4,4-Difluorocyclohexyl)(6-((R)-1-((R*)-4,4,4-trifluoro-3-methylbutanamido)ethyl)-1H-benzo[d]imidazol-2-yl)methyl)-1-(3,3,3-trifluoropropyl)-1H-pyrazole-5-carboxamide] was tested, and the pIC50 (IL-17A : IL-17RA binding) was under 7.00 and the pIC50 ([1]; Homo sapiens, Keratinocyte) was under 7.00.
CC(C)n1nccc1C(=O)N[C@H](c1nc2ccc([C@@H](C)NC(=O)CC(C)C(F)(F)F)cc2[nH]1)C1CCC(F)(F)CC1 (single isomer, unassigned) [Example 135, N—((S)-(4,4-Difluorocyclohexyl)(6-((R)-1-((R*)-4,4,4-trifluoro-3-methylbutanamido)ethyl)-1H-benzo[d]imidazol-2-yl)methyl)-1-isopropyl-1H-pyrazole-5-carboxamide] was tested, and the pIC50 (IL-17A : IL-17RA binding) was under 7.00 and the pIC50 ([1]; Homo sapiens, Keratinocyte) was over 7.30.
With CC(CC(=O)N[C@H](C)c1ccc2nc([C@@H](NC(=O)c3cc(F)ccc3F)C3CCC(F)(F)CC3)[nH]c2c1)C(F)(F)F (single isomer, unassigned) [Example 136, N—((S)-(4,4-Difluorocyclohexyl)(6-((R)-1-((R*)-4,4,4-trifluoro-3-methylbutanamido)ethyl)-1H-benzo[d]imidazol-2-yl)methyl)-2,5-difluorobenzamide] the pIC50 (IL-17A : IL-17RA binding) was under 7.00 and the pIC50 ([1]; Homo sapiens, Keratinocyte) was under 7.00.

Reference: patent publication US20240376085A1 (Janssen Pharmaceutica NV, priority 2021, published 2024)
